Experimental data published in patent US9334267B2, “RAF inhibitor compounds” (Deciphera Pharmaceuticals, LLC, priority 2012, dated 2016).

How the values were obtained:
[1] = target: T1, human wild type c-KIT (Homo sapiens, UniProt P10721); experiment: Enzymatic assay of c-Kit kinase activity (poly E4Y phosphorylation, coupled PK/LDH); format: biochemical
T1 construct: GST (N); made in house
Description: c-Kit is an important oncogene, and its overexpression and genetic mutations often occur in melanoma and gastrointestinal stromal tumor (GIST) patients. In the c-Kit enzymatic assay, the phosphorylation of poly E4Y by ATP catalyzed by human c-Kit is monitored spectrophotometrically. The ADP produced from the kinase reaction is coupled to pyruvate kinase/lactate dehydrogenase (PK/LDH) reactions where NAD is formed from pyruvate and NADH. NADH can be detected by absorbance at 340 nm, as described above for enzymatic assays of kinase activities of B-Raf, C-Raf and B-Raf mutations.
The assay reaction mixture includes 6 nM human wild type c-KIT, 1 mg/mL Poly (Glu,Tyr) (Sigma), 1 mM Phosphoenol-pyruvate, 280 μM NADH, 5 U/3.5 U (per 100 ul) Pyruvate Kinase/Lactate Dehydrogenase, 85 mM Tris, pH 7.5, 17 mM MgCl2, 0.0042% Triton® X-100, 0.005% BSA, 1% DMSO. Test compound is incubated with the reaction mixture for 0.5 hour before adding 200 μM ATP to start the reaction at 30° C.

[2] = tested on: A375 cells; experiment: A375 cell proliferation assay (CellTiter-Blue/resazurin); format: cell-based; details: Homo sapiens, A-375, V600E mutation, read-out: Cell Proliferation Inhibition IC50, nM A375
Procedure: (§1) A375 cells (catalog #CRL-1619) are obtained from the American Type Culture Collection (ATCC, Manassas, Va.). Briefly, cells are grown in DMEM High Glucose supplemented with 10% characterized fetal bovine serum (Invitrogen, Carlsbad, Calif.) and 1% Penicillin/Streptomycin/L-Glutamine at 37 degrees Celsius, 5% CO2, and 95% humidity. Cells are allowed to expand until reaching 70-95% confluency at which point they are subcultured or harvested for assay use. A serial dilution of test compound is dispensed into a 384-well black clear bottom plate in triplicate. Six hundred twenty-five cells are added per well in 50 μL complete growth medium in the 384-well plate. Plates are incubated for 67 hours at 37 degrees Celsius, 5% CO2, and 95% humidity. At the end of the incubation period, 10 μL of a 440 μM solution of resazurin (Sigma, St. Louis, Mo.) in PBS is added to each well of the plate and plates are incubated for an additional 5 hours at 37 degrees Celsius, 5% CO2, and 95% humidity. Plates are read on a Synergy2 reader (Biotek, Winooski, Vt.) using an excitation of 540 nm and an emission of 600 nm. Data is analyzed using Prism software (Graphpad, San Diego, Calif.) to calculate IC50 values.
(§2) The A375, HT-29, and Colo-205 cells (ATCC) harbor a V600E mutation.

[3] = tested on: Colo205 cells; experiment: Colo-205 cell proliferation assay (resazurin); format: cell-based; details: Homo sapiens; Colo-205 cells, V600E mutation; read-out: Cell Proliferation Inhibition IC50, nM Colo-205
Procedure: as §1, with “Colo205 cells” for “A375 cells”, “(catalog #HB-8307)” for “(catalog #CRL-1619)”, “in RPMI 1640” for “in DMEM High Glucose”, “Carlsbad, Calif.), 1 mM sodium pyruvate,” for “Carlsbad, Calif.)”, “reaching 30-60%” for “reaching 70-95%”, “triplicate. One thousand two-hundred fifty” for “triplicate. Six hundred twenty-five”
as §2

[4] = tested on: Sk-Mel-2 cells; experiment: SK-Mel-2 cell proliferation assay (resazurin); format: cell-based; details: Homo sapiens, N-Ras mutation B-Raf wild type, read-out: Cell Proliferation Inhibition IC50, nM SK-Mel-2

T1 sequence (P10721 26-976): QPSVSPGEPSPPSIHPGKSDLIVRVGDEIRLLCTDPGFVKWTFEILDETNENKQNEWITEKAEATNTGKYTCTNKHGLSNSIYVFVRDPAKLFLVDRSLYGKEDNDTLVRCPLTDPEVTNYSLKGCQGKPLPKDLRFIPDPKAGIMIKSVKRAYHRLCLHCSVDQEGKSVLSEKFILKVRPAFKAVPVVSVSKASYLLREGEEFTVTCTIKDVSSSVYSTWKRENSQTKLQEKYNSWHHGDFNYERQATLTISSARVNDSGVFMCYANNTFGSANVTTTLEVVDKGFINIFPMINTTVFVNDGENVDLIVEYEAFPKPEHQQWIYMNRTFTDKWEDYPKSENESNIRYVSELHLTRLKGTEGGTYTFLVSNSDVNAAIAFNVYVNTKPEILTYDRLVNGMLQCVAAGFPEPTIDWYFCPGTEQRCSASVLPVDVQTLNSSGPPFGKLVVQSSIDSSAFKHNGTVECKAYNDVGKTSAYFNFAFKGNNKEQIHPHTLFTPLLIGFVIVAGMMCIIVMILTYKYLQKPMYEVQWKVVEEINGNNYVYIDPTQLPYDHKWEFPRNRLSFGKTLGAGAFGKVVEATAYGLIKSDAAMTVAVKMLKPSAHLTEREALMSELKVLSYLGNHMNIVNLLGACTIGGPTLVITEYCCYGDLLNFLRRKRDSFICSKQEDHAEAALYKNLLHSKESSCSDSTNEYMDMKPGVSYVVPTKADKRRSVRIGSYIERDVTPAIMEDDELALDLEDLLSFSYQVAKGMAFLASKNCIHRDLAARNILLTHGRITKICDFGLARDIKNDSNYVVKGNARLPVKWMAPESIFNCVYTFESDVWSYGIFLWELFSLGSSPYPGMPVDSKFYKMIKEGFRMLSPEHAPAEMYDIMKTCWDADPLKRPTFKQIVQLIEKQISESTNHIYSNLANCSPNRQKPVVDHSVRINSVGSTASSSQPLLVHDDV

Structure (SMILES)	IC50 [1]	IC50 [2]	IC50 [3]	IC50 [4]
Cc1cc(F)c(NC(=O)NCCC(C)(C)C)cc1-c1cc2cnc(NCCN3CCOCC3)nc2nc1C [Example 21, 1-(3,3-Dimethylbutyl)-3-(2-fluoro-4-methyl-5-(7-methyl-2-((2-morpholinoethyl)amino)pyrido[2,3-d]pyrimidin-6-yl)phenyl)ure]	< 150 nM	< 100 nM	< 100 nM	100 to 1000 nM
Cc1cc(F)c(NC(=O)NCCC(C)(C)C)cc1-c1cc2cnc(NCc3cn(C)cn3)nc2nc1C [Example 22, 1-(3,3-Dimethylbutyl)-3-(2-fluoro-4-methyl-5-(7-methyl-2-(((1-methyl-1H-imidazol-4-yl)methyl)amino)pyrido[2,3-d]pyrimidin-6-yl)phenyl)urea]	< 150 nM	< 100 nM	< 100 nM	100 to 1000 nM
Cc1cc(F)c(NC(=O)NCCC2(C)CC2)cc1-c1cc2cnc(N)nc2nc1C [Example 23, 1-(5-(2-Amino-7-methylpyrido[2,3-d]pyrimidin-6-yl)-2-fluoro-4-methylphenyl)-3-(2-(1-methylcyclopropyl)ethyl)urea]	< 150 nM	100 to 1000 nM	< 100 nM	100 to 1000 nM
CNc1ncc2cc(-c3cc(NC(=O)NCCC4(C)CC4)c(F)cc3C)c(C)nc2n1 [Example 24, 1-(2-Fluoro-4-methyl-5-(7-methyl-2-(methylamino)pyrido[2,3-d]pyrimidin-6-yl)phenyl)-3-(2-(1-methylcyclopropyl)ethyl)urea]	< 150 nM	< 100 nM	< 100 nM	100 to 1000 nM
Cc1cc(F)c(NC(=O)NCCC(C)(C)F)cc1-c1cc2cnc(NC3COC3)nc2nc1C [Example 25, 1-(3-Fluoro-3-methylbutyl)-3-(2-fluoro-4-methyl-5-(7-methyl-2-(oxetan-3-ylamino)pyrido[2,3-d]pyrimidin-6-yl)phenyl)urea]	< 150 nM	< 100 nM	< 100 nM	100 to 1000 nM
CCNc1ncc2cc(-c3cc(NC(=O)NCCC(C)(C)F)c(F)cc3C)c(C)nc2n1 [Example 26, 1-(5-(2-(Ethylamino)-7-methylpyrido[2,3-d]pyrimidin-6-yl)-2-fluoro-4-methylphenyl)-3-(3-fluoro-3-methylbutyl)urea]	< 150 nM	100 to 1000 nM	100 to 1000 nM	100 to 1000 nM
CNc1ncc2cc(-c3cc(NC(=O)NCCC(C)(C)C(F)(F)F)c(F)cc3C)c(C)nc2n1 [Example 27, 1-(2-Fluoro-4-methyl-5-(7-methyl-2-(methylamino)pyrido[2,3-d]pyrimidin-6-yl)phenyl)-3-(4,4,4-trifluoro-3,3-dimethylbutyl)urea]	< 150 nM	< 100 nM	< 100 nM	100 to 1000 nM
Cc1cc(F)c(NC(=O)NCCC(C)(C)F)cc1-c1cc2cnc(N)nc2nc1C [Example 28, 1-(5-(2-Amino-7-methylpyrido[2,3-d]pyrimidin-6-yl)-2-fluoro-4-methylphenyl)-3-(3-fluoro-3-methylbutyl)urea]	< 150 nM	1000 to 10000 nM	100 to 1000 nM	1000 to 10000 nM
Cc1cc(F)c(NC(=O)NCCC(C)(C)F)cc1-c1cc2cnc(NCCO)nc2nc1C [Example 29, 1-(3-Fluoro-3-methylbutyl)-3-(2-fluoro-5-(2-((2-hydroxyethyl)amino)-7-methylpyrido[2,3-d]pyrimidin-6-yl)-4-methylphenyl)urea]	< 150 nM	1000 to 10000 nM	100 to 1000 nM	1000 to 10000 nM
CNc1ncc2cc(-c3cc(NC(=O)NCCC4(C(F)(F)F)CC4)c(F)cc3C)c(C)nc2n1 [Example 30, 1-(2-Fluoro-4-methyl-5-(7-methyl-2-(methylamino)pyrido[2,3-d]pyrimidin-6-yl)phenyl)-3-(2-(1-(trifluoromethyl)cyclopropyl)ethyl)urea]	< 150 nM	< 100 nM	< 100 nM	100 to 1000 nM
COCCNc1ncc2cc(-c3cc(NC(=O)NC4CC(C)(C)C4)c(F)cc3C)c(C)nc2n1 [Example 31, 1-(3,3-Dimethylcyclobutyl)-3-(2-fluoro-5-(2-((2-methoxyethyl)amino)-7-methylpyrido[2,3-d]pyrimidin-6-yl)-4-methylphenyl)urea]	< 150 nM	< 100 nM	< 100 nM	100 to 1000 nM
CNc1ncc2cc(-c3cc(NC(=O)NCCC(C)(C)C)c(F)cc3Br)c(C)nc2n1 [Example 32, 1-(4-Bromo-2-fluoro-5-(7-methyl-2-(methylamino)pyrido[2,3-d]pyrimidin-6-yl)phenyl)-3-(3,3-dimethylbutyl)urea]	< 150 nM	< 100 nM	< 100 nM	100 to 1000 nM
CC(=O)Nc1ncc2cc(-c3cc(NC(=O)NCCC(C)(C)C)c(F)cc3C)c(C)nc2n1 [Example 33, N-(6-(5-(3-(3,3-Dimethylbutyl)ureido)-4-fluoro-2-methylphenyl)-7-methylpyrido[2,3-d]pyrimidin-2-yl)acetamide]	< 150 nM	< 100 nM	< 100 nM	100 to 1000 nM
CNc1ncc2cc(-c3cc(NC(=O)NCCC(C)(C)F)c(F)cc3C)cnc2n1 [Example 34, 1-(3-Fluoro-3-methyl-butyl)-3-[2-fluoro-4-methyl-5-(2-methylaminopyrido[2,3-d]pyrimidin-6-yl)phenyl]urea]	< 150 nM	100 to 1000 nM	100 to 1000 nM	100 to 1000 nM
CNc1ncc2cc(-c3cc(NC(=O)NCCC(C)(C)C)c(F)cc3C)cnc2n1 [Example 35, 1-(3,3-Dimethylbutyl)-3-[2-fluoro-4-methyl-5-(2-methylaminopyrido[2,3-d]pyrimidin-6-yl)phenyl]urea]	< 150 nM	< 100 nM	< 100 nM	< 100 nM
CNc1ncc2cc(-c3cc(NC(=O)NCCC(C)(C)C)c(F)cc3F)cnc2n1 [Example 36, 1-(2,4-Difluoro-5-(2-(methylamino)pyrido[2,3-d]pyrimidin-6-yl)phenyl)-3-(3,3-dimethylbutyl)urea methanesulfonate]	< 150 nM	1000 to 10000 nM	1000 to 10000 nM	1000 to 10000 nM
